The values that follow come from patent US20260053861A1, “CELL COMPOSITIONS AND METHODS OF USING THE SAME” (THE REGENTS OF THE UNIVERSITY OF CALIFORNIA, priority 2022, published 2026).

Counter-ions that a name gives are not always drawn. Residues, ends and D or L forms follow the SMILES beside them.

In the first assay the test system is hPSC-SCs.
Conditions: not given
As to `NCCCCCC(=O)O` [Aminocaproic acid], the z.score.t was −0.4749.

In turn, `CN(C)CCC=C1c2ccccc2CCc2ccccc21.Cl` [Amitryptiline hydrochloride] gave a z.score.t of −0.7142.

For `CCCc1ncc(C[n+]2ccccc2C)c(N)n1` [Amprolium hydrochloride], the z.score.t was −1.615.

`c1cncc([C@@H]2CCCCN2)c1` [Anabasine] registered a z.score.t of −0.1239.

Regarding `C[C@]12CC[C@@H](O)C[C@@H]1CC[C@@H]1[C@@H]2CC[C@]2(C)C(=O)CC[C@@H]12` [Androsterone], the z.score.t is given as −1.265.

With `COc1ccc(C[C@H]2NC[C@H](O)[C@H]2OC(C)=O)cc1` [Anisomycin], the z.score.t is −2.056.

Consider `Cc1cc(=O)n(-c2ccccc2)n1C` [Antipyrine], for which the z.score.t is −0.2131.

With `COC(=O)C1=CCCN(C)C1` [Arecoline hydrobromide], the z.score.t is reported as −0.7049.

`C=C1[C@@H]2CC[C@H]3[C@]4(C)C[C@H](O[C@@H]5O[C@H](CO)[C@@H](OS(=O)(=O)O)[C@H](OS(=O)(=O)O)[C@H]5OC(=O)CC(C)C)C[C@@H](C(=O)O)[C@H]4CC[C@]3(C2)[C@@H]1O` [Atractyloside potassium salt] had a z.score.t of −0.7376.

`CN1[C@@H]2CC[C@H]1C[C@@H](OC(=O)C(CO)c1ccccc1)C2` (stereo partly shown) [Atropine sulfate monohydrate] had a z.score.t of −0.9654.

The compound `CC1=CC(=O)C2=C(C)C[C@H](O)[C@@H]3[C@H](OC(=O)[C@H]3C)[C@H]12` [Austricine hydrate] gave a z.score.t of −0.411.

In the case of `OC(c1ccccc1)(c1ccccc1)C1CCNCC1` [Azacyclonol], the z.score.t was determined as 0.5179.

In the case of `Cc1n[nH]c(=O)[nH]c1=O` [Azathymine, 6], the z.score.t was −0.5337.

`CCC1(C)CC(=O)NC(=O)C1` [Bemegride] displayed a z.score.t of 0.3241.

`CC(C)(C)CC(C)(C)c1ccc(OCCOCC[N+](C)(C)Cc2ccccc2)cc1` [Benzethonium chloride]: the z.score.t was −1.091.

Still in this assay, the particulars now being: HTS viability of hPSC-SCs in the presence of 30 mM glucose; Prestwick library; Table S4.
In the case of `CN(C)c1nc(N(C)C)nc(N(C)C)n1` [Altretamine], the z.score.t is on record as −0.7567.

On to `Nc1c(Br)cc(Br)cc1CN[C@H]1CC[C@H](O)CC1` [Ambroxol hydrochloride], for which the z.score.t was 0.837.

`Cc1c(N(C)C)c(=O)n(-c2ccccc2)n1C` [Amidopyrine]: the z.score.t is −0.2278.

In the case of `NCC[C@H](O)C(=O)N[C@@H]1C[C@H](N)[C@@H](O[C@H]2O[C@H](CN)[C@@H](O)[C@H](O)[C@H]2O)[C@H](O)[C@H]1O[C@H]1O[C@H](CO)[C@@H](O)[C@H](N)[C@H]1O` [Amikacin hydrate], the z.score.t is −0.4543.

With `N=C(N)NC(=O)c1nc(Cl)c(N)nc1N` [Amiloride hydrochloride dihydrate], the z.score.t is 0.07016.

Regarding `Nc1ccc(C(=O)NCC(=O)O)cc1` [Aminohippuric acid], the z.score.t is 0.8825.

`Cn1c(=O)c2[nH]cnc2n(C)c1=O` [Aminophylline]: the z.score.t was found to be 1.208.

For the compound `c1ccc(CNc2ncnc3[nH]cnc23)cc1` [Aminopurine, 6-benzyl], the z.score.t stood at 0.3206.

As for `CCCCc1oc2ccccc2c1C(=O)c1cc(I)c(OCCN(CC)CC)c(I)c1` [Amiodarone hydrochloride], the z.score.t is on record as −1.609.

As to `CN(C)CCCO[C@@H]1[C@H]2OC(C)(C)O[C@H]2O[C@@H]1[C@H](O)CO` [Amiprilose hydrochloride], the z.score.t was determined as 1.178.

With `CCN(CC)Cc1cc(Nc2ccnc3cc(Cl)ccc23)ccc1O` [Amodiaquin dihydrochloride dihydrate], the z.score.t is on record as −1.767.

Consider `Clc1ccc2c(c1)C(N1CCNCC1)=Nc1ccccc1O2` [Amoxapine], for which the z.score.t is listed as −0.09426.

For the compound `CC1(C)S[C@@H]2[C@H](NC(=O)[C@H](N)c3ccc(O)cc3)C(=O)N2[C@H]1C(=O)O` [Amoxicillin], the z.score.t was determined as 1.457.

Take `C[C@@H]1[C@H](O)[C@@H](C)/C=C/C=C/C=C/C=C/C=C/C=C/C=C/[C@H](O[C@@H]2O[C@H](C)[C@@H](O)[C@H](N)[C@@H]2O)C[C@@H]2O[C@](O)(C[C@@H](O)C[C@@H](O)[C@H](O)CC[C@@H](O)C[C@@H](O)CC(=O)O[C@H]1C)C[C@H](O)[C@H]2C(=O)O` [Amphotericin B]: the z.score.t is listed as 0.7312.

For `CC1(C)S[C@@H]2[C@H](NC(=O)[C@H](N)c3ccccc3)C(=O)N2[C@H]1C(=O)O` [Ampicillin trihydrate], the z.score.t is reported as 1.287.

In the case of `Cc1c(N)c(=O)n(-c2ccccc2)n1C` [Ampyrone], the z.score.t was determined as 0.4205.

With `Nc1cc(-c2ccncc2)c[nH]c1=O` [Amrinone], the z.score.t is on record as −1.025.

As to `c1ccc(CN(CC2=NCCN2)c2ccccc2)cc1` [Antazoline hydrochloride], the z.score.t was −0.004573.

With `Cc1c(O)c(=O)n(-c2ccccc2)n1C` [Antipyrine, 4-hydroxy], the z.score.t worked out at 0.04029.

Regarding `O=c1cc(-c2ccc(O)cc2)oc2cc(O)cc(O)c12` [Apigenin], the z.score.t is −0.2904.

Take `CN[C@@H]1[C@@H](O[C@H]2O[C@H](CO)[C@@H](N)[C@H](O)[C@H]2O)OC2C[C@@H](N)[C@@H](O[C@H]3[C@H](O)[C@@H](O)[C@H](N)C[C@@H]3N)OC2[C@@H]1O` (stereo partly shown) [Apramycin]: the z.score.t is given as 0.1828.

Take `OC[C@H]1O[C@@H](Oc2ccc(O)cc2)[C@H](O)[C@@H](O)[C@@H]1O` [Arbutin]: the z.score.t is given as −0.2611.

Take `NC(N)=NCCCCN=C(N)N` [Arcaine sulfate]: the z.score.t is listed as −0.7567.

Regarding `C[C@@H]1CC[C@H]2[C@@H](C)C(=O)O[C@@H]3O[C@@]4(C)CC[C@@H]1[C@]32OO4` [Artemisinin], the z.score.t was −0.5919.

As for `CCCNC(C)C(=O)Nc1c(C)csc1C(=O)OC` (stereo not shown) [Articaine hydrochloride], the z.score.t turned out to be 0.8481.

`O=C1O[C@H]([C@@H](O)CO)C(O)=C1O` [Ascorbic acid]: the z.score.t was −0.7233.

As to `COc1ccc(CCN2CCC(Nc3nc4ccccc4n3Cc3ccc(F)cc3)CC2)cc1` [Astemizole], the z.score.t is on record as −1.866.

With `O=C1C(O)=C([C@H]2CC[C@H](c3ccc(Cl)cc3)CC2)C(=O)c2ccccc21` [Atovaquone], the z.score.t is −1.62.

Consider `COc1ccc(CC2c3cc(OC)c(OC)cc3CC[N+]2(C)CCC(=O)OCCCCCOC(=O)CC[N+]2(C)CCc3cc(OC)c(OC)cc3C2Cc2ccc(OC)c(OC)c2)cc1OC` (stereo not shown) [Atracurium besylate], for which the z.score.t came to 0.5041.

`Nc1ncn([C@@H]2O[C@H](CO)[C@@H](O)[C@H]2O)c(=O)n1` [Azacytidine-5]: the z.score.t was −2.144.

Turning to `Nc1nc(O)c2[nH]nnc2n1` [Azaguanine-8], the z.score.t is reported as −1.365.

As for `O=C(CCCN1CCN(c2ccccn2)CC1)c1ccc(F)cc1` [Azaperone], the z.score.t was −0.9039.

For the compound `CCCC1C(=O)N2C(N(C)C)=Nc3ccc(C)cc3N2C1=O` (stereo not shown) [Azapropazone], the z.score.t is 1.176.

On to `Cn1cnc([N+](=O)[O-])c1Sc1ncnc2nc[nH]c12` [Azathioprine], for which the z.score.t turned out to be 0.4486.

In the case of `CC1(C)S[C@@H]2[C@H](NC(=O)[C@H](NC(=O)N3CCNC3=O)c3ccccc3)C(=O)N2[C@H]1C(=O)O` [Azlocillin sodium salt], the z.score.t is on record as 1.635.

For the compound `C[C@H]1[C@H](NC(=O)/C(=N\OC(C)(C)C(=O)O)c2csc(N)n2)C(=O)N1S(=O)(=O)O` [Aztreonam], the z.score.t was found to be 1.36.

`CCOC(=O)OC(C)OC(=O)[C@@H]1N2C(=O)[C@@H](NC(=O)[C@H](N)c3ccccc3)[C@H]2SC1(C)C` (stereo partly shown) [Bacampicillin hydrochloride]: the z.score.t was 0.3231.

Take `CC[C@H](C)[C@H](N)C1=N[C@H](C(=O)N[C@@H](CC(C)C)C(=O)N[C@H](CCC(=O)O)C(=O)N[C@H](C(=O)N[C@H]2CCCCNC(=O)[C@H](CC(N)=O)NC(=O)[C@@H](CC(=O)O)NC(=O)[C@H](Cc3cnc[nH]3)NC(=O)[C@@H](Cc3ccccc3)NC(=O)[C@H]([C@@H](C)CC)NC(=O)[C@@H](CCCN)NC2=O)[C@@H](C)CC)CS1` [Bacitracin] (HELM PEPTIDE1{[CC[C@H](C)[C@H](N)C1=N[C@H](C(=O)[*:2])CS1].L.[dE].I.K.[NCCC[C@@H](N[*:1])C(=O)[*:2]].I.[dF].H.[dD].N}$PEPTIDE1,PEPTIDE1,5:R3-11:R2$$$V2.0): the z.score.t is listed as 1.163.

On to `O=C(O)CCNC(=O)c1ccc(/N=N/c2ccc(O)c(C(=O)O)c2)cc1` [Balsalazide Sodium], for which the z.score.t worked out at 0.7914.

As for `CN(C)C(=O)Oc1cc(OC(=O)N(C)C)cc(C(O)CNC(C)(C)C)c1` (stereo not shown) [Bambuterol hydrochloride], the z.score.t is given as −0.5919.

`CCC(=O)OCC(=O)[C@@]1(OC(=O)CC)[C@@H](C)C[C@H]2[C@@H]3CCC4=CC(=O)C=C[C@]4(C)[C@@]3(Cl)[C@@H](O)C[C@@]21C` [Beclomethasone dipropionate]: the z.score.t is −0.2136.

On to `NS(=O)(=O)c1cc2c(cc1C(F)(F)F)NC(Cc1ccccc1)NS2(=O)=O` (stereo not shown) [Bendroflumethiazide], for which the z.score.t is reported as −1.107.

With `CC(Cc1cccc(C(F)(F)F)c1)NCCOC(=O)c1ccccc1` (stereo not shown) [Benfluorex hydrochloride], the z.score.t is 1.095.

As for `C/C(=C(\CCOP(=O)(O)O)SC(=O)c1ccccc1)N(C=O)Cc1cnc(C)nc1N` [Benfotiamine], the z.score.t is given as −0.1239.

With `CCCCOc1cc(C(=O)OCCN(CC)CC)ccc1N` [Benoxinate hydrochloride], the z.score.t is 0.05523.

Take `O=C(CCCN1CCC(n2c(O)nc3ccccc32)CC1)c1ccc(F)cc1` [Benperidol]: the z.score.t was found to be 0.1556.

Take `NC(CO)C(=O)NNCc1ccc(O)c(O)c1O` (stereo not shown) [Benserazide hydrochloride]: the z.score.t is given as −0.2359.

As to `NC(=NCc1ccccc1)NC(=O)c1nc(Cl)c(N)nc1N` [Benzamil hydrochloride], the z.score.t was −1.515.

Turning to `CC1(C)S[C@@H]2[C@H](NC(=O)Cc3ccccc3)C(=O)N2[C@H]1C(=O)O.CC1(C)S[C@@H]2[C@H](NC(=O)Cc3ccccc3)C(=O)N2[C@H]1C(=O)O.c1ccc(CNCCNCc2ccccc2)cc1` [Benzathine benzylpenicillin], the z.score.t is on record as −0.08998.
